Assay results as given in publication PMC7827406, “Structure–Activity Relationship (SAR) Study of Spautin-1 to Entail the Discovery of Novel NEK4 Inhibitors” (International Journal of Molecular Sciences, 2021).
Read-outs that look alike come from different tables or passages of the source.

Columns and labels:
Assay in all cases: biochemical
Set-up in all cases: Eurofins KinaseProfiler full panel at Km ATP, residual kinase activity (%) relative to DMSO
Arg(h) = target: T1, Arg(h) (Homo sapiens, UniProt P42684)
T1 construct: gene ABL2
T1 sequence (P42684 whole entry): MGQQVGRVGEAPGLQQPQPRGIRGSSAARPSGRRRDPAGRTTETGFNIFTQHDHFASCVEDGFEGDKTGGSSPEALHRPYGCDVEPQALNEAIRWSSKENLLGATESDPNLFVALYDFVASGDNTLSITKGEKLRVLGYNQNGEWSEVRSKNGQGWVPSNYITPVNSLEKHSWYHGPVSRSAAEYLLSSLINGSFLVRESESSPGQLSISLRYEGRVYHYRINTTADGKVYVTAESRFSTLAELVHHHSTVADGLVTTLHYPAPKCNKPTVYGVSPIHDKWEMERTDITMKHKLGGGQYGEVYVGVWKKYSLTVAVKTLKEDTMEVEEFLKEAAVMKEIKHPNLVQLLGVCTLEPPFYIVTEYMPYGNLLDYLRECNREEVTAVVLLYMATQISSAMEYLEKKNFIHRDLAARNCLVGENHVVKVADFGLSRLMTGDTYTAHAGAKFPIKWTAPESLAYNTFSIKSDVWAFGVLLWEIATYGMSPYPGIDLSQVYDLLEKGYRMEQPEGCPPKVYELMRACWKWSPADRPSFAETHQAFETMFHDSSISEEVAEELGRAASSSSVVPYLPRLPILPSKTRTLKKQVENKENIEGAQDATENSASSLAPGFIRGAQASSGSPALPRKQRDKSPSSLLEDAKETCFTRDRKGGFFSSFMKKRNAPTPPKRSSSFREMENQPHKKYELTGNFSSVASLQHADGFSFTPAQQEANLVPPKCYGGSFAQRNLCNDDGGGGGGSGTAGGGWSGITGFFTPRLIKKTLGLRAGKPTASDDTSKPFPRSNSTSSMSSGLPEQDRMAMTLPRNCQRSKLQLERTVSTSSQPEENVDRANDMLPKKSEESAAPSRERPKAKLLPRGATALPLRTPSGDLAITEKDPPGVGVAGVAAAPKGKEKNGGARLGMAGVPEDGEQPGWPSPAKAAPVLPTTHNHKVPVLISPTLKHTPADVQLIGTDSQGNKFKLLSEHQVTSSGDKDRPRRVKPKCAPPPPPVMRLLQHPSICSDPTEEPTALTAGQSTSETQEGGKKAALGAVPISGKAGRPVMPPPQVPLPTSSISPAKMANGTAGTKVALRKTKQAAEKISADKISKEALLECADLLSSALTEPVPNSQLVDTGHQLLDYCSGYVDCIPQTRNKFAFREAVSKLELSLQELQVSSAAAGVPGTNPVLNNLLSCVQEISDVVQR
Procedure, shortened: (§1)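 Compounds screened at 10 µM in radiometric kinase activity assays at Km ATP, reported as remaining kinase activity (%). A KINOMEscan competition-binding screen at 10 µM measured DNA-tagged kinase retained on immobilized active-site ligand by qPCR.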

MYLK2(h) = MYLK2(h) (Homo sapiens, UniProt Q9H1R3)
Procedure, shortened: as §1

TNIK(h) = TNIK(h) (Homo sapiens, UniProt Q9UKE5)
Procedure, shortened: as §1

PKD3(h) = target: T2, PKD3(h) (Homo sapiens, UniProt O94806)
T2 construct: gene PRKD3
T2 sequence (O94806 1-890): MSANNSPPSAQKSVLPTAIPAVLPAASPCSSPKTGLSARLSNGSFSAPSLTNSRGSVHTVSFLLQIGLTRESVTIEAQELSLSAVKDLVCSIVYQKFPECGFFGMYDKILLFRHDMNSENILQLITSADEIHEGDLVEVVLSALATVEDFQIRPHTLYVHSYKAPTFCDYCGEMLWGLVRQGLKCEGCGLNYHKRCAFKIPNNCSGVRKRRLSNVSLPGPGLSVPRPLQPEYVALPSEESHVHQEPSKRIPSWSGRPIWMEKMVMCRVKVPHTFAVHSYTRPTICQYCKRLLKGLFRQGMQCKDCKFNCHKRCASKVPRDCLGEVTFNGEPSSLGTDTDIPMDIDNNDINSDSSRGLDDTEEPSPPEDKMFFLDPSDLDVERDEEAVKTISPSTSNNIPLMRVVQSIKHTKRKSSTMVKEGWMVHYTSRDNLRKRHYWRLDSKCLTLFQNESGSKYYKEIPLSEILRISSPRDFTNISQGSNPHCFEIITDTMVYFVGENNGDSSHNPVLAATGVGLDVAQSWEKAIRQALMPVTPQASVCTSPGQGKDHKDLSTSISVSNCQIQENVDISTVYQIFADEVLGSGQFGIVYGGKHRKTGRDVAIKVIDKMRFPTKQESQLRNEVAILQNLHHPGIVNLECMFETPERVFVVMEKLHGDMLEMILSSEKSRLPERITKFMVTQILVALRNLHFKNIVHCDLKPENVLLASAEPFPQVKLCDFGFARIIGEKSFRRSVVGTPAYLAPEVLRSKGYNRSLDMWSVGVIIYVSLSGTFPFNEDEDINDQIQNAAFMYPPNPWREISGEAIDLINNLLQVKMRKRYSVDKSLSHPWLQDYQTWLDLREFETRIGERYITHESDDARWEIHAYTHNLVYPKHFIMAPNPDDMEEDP
Procedure, shortened: as §1

CDKL4(h) = CDKL4(h) (Homo sapiens, UniProt Q5MAI5)
CDKL4(h), sequence (Q5MAI5 whole entry): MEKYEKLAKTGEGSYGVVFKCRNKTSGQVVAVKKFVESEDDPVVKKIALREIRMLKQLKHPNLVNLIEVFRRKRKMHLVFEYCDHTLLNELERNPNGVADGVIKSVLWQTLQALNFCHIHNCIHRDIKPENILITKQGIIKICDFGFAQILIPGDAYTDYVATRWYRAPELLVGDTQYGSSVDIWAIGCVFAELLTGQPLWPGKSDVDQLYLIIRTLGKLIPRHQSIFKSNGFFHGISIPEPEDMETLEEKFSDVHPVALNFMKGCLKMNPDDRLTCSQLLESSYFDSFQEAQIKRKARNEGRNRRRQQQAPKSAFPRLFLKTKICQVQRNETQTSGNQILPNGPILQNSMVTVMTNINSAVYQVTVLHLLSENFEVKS
Procedure, shortened: as §1

MSK2(h) = target: T3, MSK2(h) (Homo sapiens, UniProt O75676)
T3 construct: gene RPS6KA4
T3 sequence (O75676 whole entry): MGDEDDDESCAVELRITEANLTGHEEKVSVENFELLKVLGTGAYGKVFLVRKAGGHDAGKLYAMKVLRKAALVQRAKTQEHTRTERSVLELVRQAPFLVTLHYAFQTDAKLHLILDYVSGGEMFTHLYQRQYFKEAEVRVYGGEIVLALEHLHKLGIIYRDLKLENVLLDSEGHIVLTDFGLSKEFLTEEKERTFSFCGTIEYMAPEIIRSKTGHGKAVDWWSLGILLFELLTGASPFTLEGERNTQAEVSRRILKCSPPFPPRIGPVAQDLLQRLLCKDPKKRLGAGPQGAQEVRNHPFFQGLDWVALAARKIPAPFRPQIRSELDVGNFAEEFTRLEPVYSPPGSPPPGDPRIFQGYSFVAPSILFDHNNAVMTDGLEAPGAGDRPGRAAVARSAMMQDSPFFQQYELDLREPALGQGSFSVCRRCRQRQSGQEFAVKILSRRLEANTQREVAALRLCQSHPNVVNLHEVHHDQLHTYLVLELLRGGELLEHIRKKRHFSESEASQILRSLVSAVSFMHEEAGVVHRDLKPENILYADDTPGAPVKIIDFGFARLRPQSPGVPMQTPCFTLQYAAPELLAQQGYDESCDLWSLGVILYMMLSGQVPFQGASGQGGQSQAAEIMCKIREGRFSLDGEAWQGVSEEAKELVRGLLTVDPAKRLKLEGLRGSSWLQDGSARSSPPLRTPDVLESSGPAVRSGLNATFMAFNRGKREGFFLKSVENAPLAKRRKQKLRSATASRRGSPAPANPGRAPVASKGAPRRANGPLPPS
Procedure, shortened: as §1

BRK(h) = target: T4, BRK(h) (Homo sapiens, UniProt Q13882)
T4 construct: gene PTK6
Procedure, shortened: as §1

[1] = target: T5, PI3 Kinase (p110b/p85b)(m) (Mus musculus, UniProt Q8BTI9)
T5 construct: gene Pik3cb
T5 sequence (Q8BTI9 whole entry): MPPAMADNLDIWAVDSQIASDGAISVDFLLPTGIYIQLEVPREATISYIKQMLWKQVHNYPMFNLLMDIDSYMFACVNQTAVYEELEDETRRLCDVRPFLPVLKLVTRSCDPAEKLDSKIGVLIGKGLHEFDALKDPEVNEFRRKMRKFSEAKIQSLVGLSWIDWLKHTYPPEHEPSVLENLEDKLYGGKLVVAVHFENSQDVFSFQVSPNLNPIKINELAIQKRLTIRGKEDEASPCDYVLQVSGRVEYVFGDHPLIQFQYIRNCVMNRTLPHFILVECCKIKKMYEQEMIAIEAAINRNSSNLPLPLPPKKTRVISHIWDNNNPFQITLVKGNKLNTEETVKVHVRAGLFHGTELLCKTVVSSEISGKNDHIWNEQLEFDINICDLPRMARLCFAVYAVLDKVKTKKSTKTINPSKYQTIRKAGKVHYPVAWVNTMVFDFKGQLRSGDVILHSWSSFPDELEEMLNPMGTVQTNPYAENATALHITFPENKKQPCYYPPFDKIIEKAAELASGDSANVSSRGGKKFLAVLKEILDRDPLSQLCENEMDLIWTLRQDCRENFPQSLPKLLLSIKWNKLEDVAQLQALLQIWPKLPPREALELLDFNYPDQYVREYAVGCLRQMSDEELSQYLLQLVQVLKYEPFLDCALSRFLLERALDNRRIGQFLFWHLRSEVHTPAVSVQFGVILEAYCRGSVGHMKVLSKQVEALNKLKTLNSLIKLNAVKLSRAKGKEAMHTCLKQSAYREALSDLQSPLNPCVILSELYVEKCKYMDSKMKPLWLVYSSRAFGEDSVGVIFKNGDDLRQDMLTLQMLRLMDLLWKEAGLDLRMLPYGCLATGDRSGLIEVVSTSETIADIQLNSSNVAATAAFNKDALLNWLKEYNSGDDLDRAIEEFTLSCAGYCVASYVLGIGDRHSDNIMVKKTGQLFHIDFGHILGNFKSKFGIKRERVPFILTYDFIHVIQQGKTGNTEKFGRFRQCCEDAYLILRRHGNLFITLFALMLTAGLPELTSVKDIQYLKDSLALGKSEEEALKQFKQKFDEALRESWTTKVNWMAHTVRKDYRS
T5 sequence (O08908 whole entry partner): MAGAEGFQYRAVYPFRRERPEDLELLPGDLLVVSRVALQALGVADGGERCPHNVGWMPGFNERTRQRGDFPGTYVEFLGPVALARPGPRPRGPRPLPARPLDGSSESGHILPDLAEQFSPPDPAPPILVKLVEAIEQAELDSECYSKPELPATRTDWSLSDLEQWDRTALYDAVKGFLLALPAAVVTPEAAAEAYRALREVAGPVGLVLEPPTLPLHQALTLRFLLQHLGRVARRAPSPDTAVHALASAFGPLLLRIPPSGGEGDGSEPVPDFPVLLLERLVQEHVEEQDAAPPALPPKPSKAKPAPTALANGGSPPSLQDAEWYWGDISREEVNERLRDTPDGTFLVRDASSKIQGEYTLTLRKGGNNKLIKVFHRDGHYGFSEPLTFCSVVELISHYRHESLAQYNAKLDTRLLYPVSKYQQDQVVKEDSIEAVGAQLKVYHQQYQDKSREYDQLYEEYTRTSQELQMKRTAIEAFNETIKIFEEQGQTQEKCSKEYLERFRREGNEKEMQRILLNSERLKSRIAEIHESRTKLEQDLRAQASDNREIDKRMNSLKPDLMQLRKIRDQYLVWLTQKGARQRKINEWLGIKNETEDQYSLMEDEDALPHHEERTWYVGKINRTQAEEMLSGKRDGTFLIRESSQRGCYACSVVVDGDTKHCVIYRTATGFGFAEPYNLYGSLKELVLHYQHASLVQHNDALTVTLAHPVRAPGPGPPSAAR
Procedure, shortened: as §1

SAPK4(h) = target: T6, SAPK4(h) (Homo sapiens, UniProt O15264)
T6 construct: gene MAPK13
T6 sequence (O15264 1-365): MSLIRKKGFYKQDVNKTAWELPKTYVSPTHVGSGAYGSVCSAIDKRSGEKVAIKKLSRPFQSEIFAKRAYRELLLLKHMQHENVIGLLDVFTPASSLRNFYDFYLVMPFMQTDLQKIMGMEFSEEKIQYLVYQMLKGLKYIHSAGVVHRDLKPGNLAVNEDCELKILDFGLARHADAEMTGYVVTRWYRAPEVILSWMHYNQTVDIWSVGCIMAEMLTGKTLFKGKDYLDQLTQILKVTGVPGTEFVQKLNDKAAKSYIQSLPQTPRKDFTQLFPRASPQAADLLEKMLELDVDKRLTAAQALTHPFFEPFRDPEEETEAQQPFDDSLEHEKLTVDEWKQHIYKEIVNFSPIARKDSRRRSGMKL
Procedure, shortened: as §1

Abl (M351T)(h) = target: T7, Abl (M351T)(h) (Homo sapiens, UniProt P00519, M351T)
T7 construct: gene ABL1
Procedure, shortened: as §1

Rsk1(r) = target: T8, Rsk1(r) (Rattus norvegicus, UniProt Q63531)
T8 construct: gene Rps6ka1
T8 sequence (Q63531 whole entry): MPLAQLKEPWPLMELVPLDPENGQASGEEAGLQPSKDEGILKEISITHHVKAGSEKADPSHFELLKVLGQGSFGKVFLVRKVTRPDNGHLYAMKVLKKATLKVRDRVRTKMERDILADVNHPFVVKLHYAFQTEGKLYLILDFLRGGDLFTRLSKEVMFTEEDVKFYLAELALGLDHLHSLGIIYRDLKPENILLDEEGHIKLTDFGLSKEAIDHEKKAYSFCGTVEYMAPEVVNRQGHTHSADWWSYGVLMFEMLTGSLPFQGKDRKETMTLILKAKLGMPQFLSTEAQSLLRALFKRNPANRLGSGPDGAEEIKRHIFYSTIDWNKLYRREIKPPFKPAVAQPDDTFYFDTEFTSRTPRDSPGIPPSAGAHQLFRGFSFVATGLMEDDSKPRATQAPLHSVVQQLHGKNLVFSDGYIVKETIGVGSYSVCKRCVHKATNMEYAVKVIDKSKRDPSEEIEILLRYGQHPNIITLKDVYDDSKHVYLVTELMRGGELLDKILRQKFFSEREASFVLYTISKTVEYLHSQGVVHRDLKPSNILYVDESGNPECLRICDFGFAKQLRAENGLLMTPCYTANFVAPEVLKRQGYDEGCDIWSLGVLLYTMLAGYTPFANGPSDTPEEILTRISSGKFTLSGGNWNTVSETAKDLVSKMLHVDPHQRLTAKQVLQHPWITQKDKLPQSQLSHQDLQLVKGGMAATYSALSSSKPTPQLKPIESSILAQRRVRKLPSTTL
Procedure, shortened: as §1

[2] = read-out: Residual activity (%) 5at
[3] = read-out: Residual activity (%) 5as
[4] = read-out: Residual activity (%) 5ay
[5] = read-out: Residual activity (%) Spautin-1 5aa

Work on `Fc1ccc2ncnc(NCCc3ccc(Cl)cc3)c2c1` [5at, N-[2-(4-Chlorophenyl)Ethyl]-6-Fluoro-4-Quinazolinamine] yielded a remaining activity at 10 µM (Arg(h); [2]) of 81%, a remaining activity at 10 µM (MYLK2(h); [2]) of 93% and a remaining activity at 10 µM (TNIK(h); [2]) of 63%. The remaining activity at 10 µM (PKD3(h); [2]) was 102%, the remaining activity at 10 µM (CDKL4(h); [2]) was 92% and the remaining activity at 10 µM (MSK2(h); [2]) was 97%. For the same compound, the remaining activity at 10 µM (BRK(h); [2]) was 96%, the remaining activity at 10 µM [1, 2] was 87% and the remaining activity at 10 µM (SAPK4(h); [2]) was 92%. It also gave a remaining activity at 10 µM (Abl (M351T)(h); [2]) of 69% and a remaining activity at 10 µM (Rsk1(r); [2]) of 113%.

`Fc1ccc(CCNc2ncnc3ccc(F)cc23)cc1` [5as, 6-Fluoro-N-[2-(4-Fluorophenyl)Ethyl]-4-Quinazolinamine] gave a remaining activity at 10 µM (Arg(h); [3]) of 82%, a remaining activity at 10 µM (MYLK2(h); [3]) of 80% and a remaining activity at 10 µM (TNIK(h); [3]) of 83%. The remaining activity at 10 µM (PKD3(h); [3]) was 114%, the remaining activity at 10 µM (CDKL4(h); [3]) was 94% and the remaining activity at 10 µM (MSK2(h); [3]) was 96%. For the same compound, the remaining activity at 10 µM (BRK(h); [3]) was 87%, the remaining activity at 10 µM [1, 3] was 86% and the remaining activity at 10 µM (SAPK4(h); [3]) was 105%. The remaining activity at 10 µM (Abl (M351T)(h); [3]) was 73% and the remaining activity at 10 µM (Rsk1(r); [3]) was 130%.

For `COc1ccc2ncnc(Nc3cccc(F)c3)c2c1` [5ay, N-(3-Fluorophenyl)-6-Methoxy-4-Quinazolinamine], the remaining activity at 10 µM (Arg(h); [4]) was 73%, the remaining activity at 10 µM (MYLK2(h); [4]) was 89% and the remaining activity at 10 µM (TNIK(h); [4]) was 65%. For the same compound, the remaining activity at 10 µM (PKD3(h); [4]) was 91%, the remaining activity at 10 µM (CDKL4(h); [4]) was 38% and the remaining activity at 10 µM (MSK2(h); [4]) was 88%. For the same compound, the remaining activity at 10 µM (BRK(h); [4]) was 71%, the remaining activity at 10 µM [1, 4] was 89% and the remaining activity at 10 µM (SAPK4(h); [4]) was 105%. It also gave a remaining activity at 10 µM (Abl (M351T)(h); [4]) of 76% and a remaining activity at 10 µM (Rsk1(r); [4]) of 129%.

Compound `Fc1ccc(CNc2ncnc3ccc(F)cc23)cc1` [5aa, 6-Fluoro-N-(4-fluorobenzyl)-4-Quinazolinamine] has a remaining activity at 10 µM (Arg(h); [5]) of 79%, a remaining activity at 10 µM (MYLK2(h); [5]) of 97% and a remaining activity at 10 µM (TNIK(h); [5]) of 72%. For the same compound, the remaining activity at 10 µM (PKD3(h); [5]) was 100%, the remaining activity at 10 µM (CDKL4(h); [5]) was 73% and the remaining activity at 10 µM (MSK2(h); [5]) was 91%. It also gave a remaining activity at 10 µM (BRK(h); [5]) of 105%, a remaining activity at 10 µM [1, 5] of 97% and a remaining activity at 10 µM (SAPK4(h); [5]) of 97%. It also gave a remaining activity at 10 µM (Abl (M351T)(h); [5]) of 93% and a remaining activity at 10 µM (Rsk1(r); [5]) of 117%.
